Data published in US20040176431A1, “Antiproliferative 2-(sulfo-phenyl)-aminothiazole derivatives and pharmaceutical compositions, and methods for their use” (Pfizer, Inc., priority 2003, published 2004).

Target: T1, CDK4/cyclin D3 (Homo sapiens, UniProt P11802)
T1 construct: made in house; host or cells: insect cells (baculovirus co-infection)
Assay: Inhibition of CDK4/Cyclin D retinoblastoma kinase activity;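 as to % Inhib CDK4/D @ 1 μM: relative to DMSO control wells without compound minus no-enzyme background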
Type: biochemical
Settings: for inhibition at 0.1 µM / % Inhib CDK4/D @ 0.1 μM: test compound at 0.1 μM; for inhibition at 0.1 µM: read-out: % Inhib CDK4/D @ 0.1 μM; for inhibition at 1 µM / % Inhib CDK4/D @ 1 μM: test compound at 1 μM (head line shifted: 'mM' printed beside 'Structure'); for inhibition at 1 µM: read-out: % Inhib CDK4/D @ 1 μM; for inhibition at 0.03 µM / % Inhib CDK4/D @ 0.03: test compound at 0.03 (unit cell empty, head line shifted; μM); for inhibition at 0.03 µM: read-out: % Inhib CDK4/D @ 0.03
How it was run: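 Human CDK4 with truncated cyclin D3 (1-264) from baculovirus-infected insect cells, 5 nM, phosphorylating His-tagged Rb fragment (386-928) with 25 μM [32P/33P]ATP in pH 7.4 HEPES/MgCl2, 2% DMSO, 30° C., 20 min (60 min for tight binders). Filter capture, phosphorimager; apparent Ki from competitive or tight-binding competitive fits.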

T1 sequence (P11802 whole entry): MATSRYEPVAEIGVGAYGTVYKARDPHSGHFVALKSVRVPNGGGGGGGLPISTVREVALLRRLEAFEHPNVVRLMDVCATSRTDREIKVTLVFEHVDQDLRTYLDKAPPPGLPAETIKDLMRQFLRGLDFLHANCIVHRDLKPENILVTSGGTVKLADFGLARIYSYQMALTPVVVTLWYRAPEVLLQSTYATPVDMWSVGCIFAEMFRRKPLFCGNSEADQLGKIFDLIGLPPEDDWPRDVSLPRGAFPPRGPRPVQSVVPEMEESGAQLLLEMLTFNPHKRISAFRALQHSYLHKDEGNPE
T1 sequence (P30281 1-264 partner limits assumed): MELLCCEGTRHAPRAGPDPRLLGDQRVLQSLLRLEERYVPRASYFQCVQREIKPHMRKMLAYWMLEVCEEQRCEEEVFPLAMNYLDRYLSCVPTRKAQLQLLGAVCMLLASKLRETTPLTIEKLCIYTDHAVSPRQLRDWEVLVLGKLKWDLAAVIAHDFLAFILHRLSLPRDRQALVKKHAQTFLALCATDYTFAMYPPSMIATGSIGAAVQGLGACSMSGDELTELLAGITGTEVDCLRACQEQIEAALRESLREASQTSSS

inhibition at 0.1 µM [%] | inhibition at 1 µM [%] | inhibition at 0.03 µM [%] | % Inhib CDK4/D @ 0.1 μM [%] | % Inhib CDK4/D @ 1 μM [%] | % Inhib CDK4/D @ 0.03 [%] | SMILES
60 | 73.9 | 14 |  |  |  | NC(=O)CC[S+]([O-])c1ccc(Nc2nc(N)c(C(=O)c3c(Cl)cccc3Cl)s2)cc1 (stereo not drawn) [DD(108)]
 |  |  | 67 | 73.5 | 25 | Nc1nc(Nc2ccc([S+]([O-])CCO)cc2)sc1C(=O)c1c(Cl)cccc1Cl (stereo not drawn) [DD(109)]
 |  |  | 27 | 28.9 | 3.7 | Nc1nc(Nc2ccc([S+]([O-])CCO)cc2)sc1C(=O)c1c(Cl)cccc1Cl (stereo not drawn) [DD(110)]
32 | 64.8 | -1.7 |  |  |  | CC(C)CCOC(=O)C[S+]([O-])c1ccc(Nc2nc(N)c(C(=O)c3c(Cl)cccc3Cl)s2)cc1 (stereo not drawn) [DD(111)]
27 | 63.2 | -4.9 |  |  |  | CN(C)CC[S+]([O-])c1ccc(Nc2nc(N)c(C(=O)c3c(Cl)cccc3Cl)s2)cc1 (stereo not drawn) [DD(112)]
30 | 59.4 | 1.1 |  |  |  | CCOCC[S+]([O-])c1ccc(Nc2nc(N)c(C(=O)c3c(Cl)cccc3Cl)s2)cc1 (stereo not drawn) [DD(113)]
46 | 77.9 | 16 |  |  |  | Nc1nc(Nc2ccc([S+]([O-])CC(O)CO)cc2)sc1C(=O)c1c(Cl)cccc1Cl (stereo not drawn) [DD(114)]
45 | 68.5 | 6.3 |  |  |  | Nc1nc(Nc2ccc([S+]([O-])Cc3ccncc3)cc2)sc1C(=O)c1c(Cl)cccc1Cl (stereo not drawn) [DD(115)]
15 | 26.6 | -2.9 |  |  |  | CCC(CC)C[S+]([O-])c1ccc(Nc2nc(N)c(C(=O)c3c(Cl)cccc3Cl)s2)cc1 (stereo not drawn) [DD(116)]
52 | 61.1 | 16 |  |  |  | CC(=O)OCC[S+]([O-])c1ccc(Nc2nc(N)c(C(=O)c3c(Cl)cccc3Cl)s2)cc1 (stereo not drawn) [DD(117)]
22 | 49.9 | -0.7 |  |  |  | CC(C)OC(=O)CC[S+]([O-])c1ccc(Nc2nc(N)c(C(=O)c3c(Cl)cccc3Cl)s2)cc1 (stereo not drawn) [DD(118)]
36 | 58 | 3.8 |  |  |  | Nc1nc(Nc2ccc([S+]([O-])CCN3CCOCC3)cc2)sc1C(=O)c1c(Cl)cccc1Cl (stereo not drawn) [DD(119)]
29 | 57.1 | -34 |  |  |  | CC(C)(CO)C[S+]([O-])c1ccc(Nc2nc(N)c(C(=O)c3c(Cl)cccc3Cl)s2)cc1 (stereo not drawn) [DD(120)]
41 | 59.8 | -0.5 |  |  |  | CCN(CC)C(=O)C[S+]([O-])c1cccc(Nc2nc(N)c(C(=O)c3c(Cl)cccc3Cl)s2)c1 (stereo not drawn) [DD(121)]
40 | 54.3 | 16 |  |  |  | Cc1noc(C)c1C[S+]([O-])c1cccc(Nc2nc(N)c(C(=O)c3c(Cl)cccc3Cl)s2)c1 (stereo not drawn) [DD(122)]
34 | 51.2 | 8 |  |  |  | CC(CN(C)C)C[S+]([O-])c1cccc(Nc2nc(N)c(C(=O)c3c(Cl)cccc3Cl)s2)c1 (stereo not drawn) [DD(123)]
34 | 38.8 | 2.1 |  |  |  | COC(=O)/C=C/C[S+]([O-])c1cccc(Nc2nc(N)c(C(=O)c3c(Cl)cccc3Cl)s2)c1 (stereo not drawn) [DD(124)]
55 | 61.5 | 15 |  |  |  | Nc1nc(Nc2cccc([S+]([O-])CCCO)c2)sc1C(=O)c1c(Cl)cccc1Cl (stereo not drawn) [DD(125)]
28 | 43.1 | 7.5 |  |  |  | C=CCC[S+]([O-])c1cccc(Nc2nc(N)c(C(=O)c3c(Cl)cccc3Cl)s2)c1 (stereo not drawn) [DD(126)]
34 | 49.6 | -4.3 |  |  |  | Nc1nc(Nc2cccc([S+]([O-])CCN3CCCC3)c2)sc1C(=O)c1c(Cl)cccc1Cl (stereo not drawn) [DD(127)]
54 | 49.9 | 12 |  |  |  | Nc1nc(Nc2cccc([S+]([O-])Cc3ncon3)c2)sc1C(=O)c1c(Cl)cccc1Cl (stereo not drawn) [DD(128)]
33 | 33.3 | 19 |  |  |  | Nc1nc(Nc2cccc([S+]([O-])CC3CNC(=O)O3)c2)sc1C(=O)c1c(Cl)cccc1Cl (stereo not drawn) [DD(129)]
41 | 56 | 12 |  |  |  | CN(C)CCC[S+]([O-])c1cccc(Nc2nc(N)c(C(=O)c3c(Cl)cccc3Cl)s2)c1 (stereo not drawn) [DD(130)]
32 | 57 | 13 |  |  |  | Nc1nc(Nc2cccc([S+]([O-])CCN3CCCCC3)c2)sc1C(=O)c1c(Cl)cccc1Cl (stereo not drawn) [DD(131)]

inhibition at 0.1 µM [%] | inhibition at 1 µM [%] | inhibition at 0.03 µM [%] | % Inhib CDK4/D @ 0.1 μM [%] | % Inhib CDK4/D @ 1 μM [%] | % Inhib CDK4/D @ 0.03 [%] | SMILES
64 | 62 | 44 |  |  |  | Nc1nc(Nc2cccc([S+]([O-])CC3CO3)c2)sc1C(=O)c1c(Cl)cccc1Cl (stereo not drawn) [DD(132)]
28 | 24.3 | 14 |  |  |  | CC(C)CC[S+]([O-])c1cccc(Nc2nc(N)c(C(=O)c3c(Cl)cccc3Cl)s2)c1 (stereo not drawn) [DD(133)]
48 | 49.9 | 8.4 |  |  |  | COCC[S+]([O-])c1cccc(Nc2nc(N)c(C(=O)c3c(Cl)cccc3Cl)s2)c1 (stereo not drawn) [DD(134)]
42 | 51.9 | 16 |  |  |  | Nc1nc(Nc2cccc([S+]([O-])CC(=O)Nc3ccccc3)c2)sc1C(=O)c1c(Cl)cccc1Cl (stereo not drawn) [DD(135)]
27 | 44.9 | 14 |  |  |  | Nc1nc(Nc2cccc([S+]([O-])CC3CC3)c2)sc1C(=O)c1c(Cl)cccc1Cl (stereo not drawn) [DD(136)]
22 | 36.7 | -1.7 |  |  |  | COc1cccc(C[S+]([O-])c2cccc(Nc3nc(N)c(C(=O)c4c(Cl)cccc4Cl)s3)c2)c1 (stereo not drawn) [DD(137)]
34 | 63.8 | 2.9 |  |  |  | Nc1nc(Nc2cccc([S+]([O-])CC3CCCO3)c2)sc1C(=O)c1c(Cl)cccc1Cl (stereo not drawn) [DD(138)]
53 | 77.6 | 17 |  |  |  | CN1CCCC1CC[S+]([O-])c1cccc(Nc2nc(N)c(C(=O)c3c(Cl)cccc3Cl)s2)c1 (stereo not drawn) [DD(139)]
41 | 68 | 25 |  |  |  | CC1(C[S+]([O-])c2cccc(Nc3nc(N)c(C(=O)c4c(Cl)cccc4Cl)s3)c2)CO1 (stereo not drawn) [DD(140)]
71 | 64.5 | 36 |  |  |  | NC(=O)C[S+]([O-])c1cccc(Nc2nc(N)c(C(=O)c3c(Cl)cccc3Cl)s2)c1 (stereo not drawn) [DD(141)]
36 | 39.3 | -2.6 |  |  |  | CCOC(=O)CC[S+]([O-])c1cccc(Nc2nc(N)c(C(=O)c3c(Cl)cccc3Cl)s2)c1 (stereo not drawn) [DD(142)]
24 | 36.7 | 15 |  |  |  | CC(C)OC(=O)C[S+]([O-])c1cccc(Nc2nc(N)c(C(=O)c3c(Cl)cccc3Cl)s2)c1 (stereo not drawn) [DD(143)]
12 | 27.7 | -66 |  |  |  | CC(C)=CC[S+]([O-])c1cccc(Nc2nc(N)c(C(=O)c3c(Cl)cccc3Cl)s2)c1 (stereo not drawn) [DD(144)]
32 | 42.3 | 4.2 |  |  |  | CCC[S+]([O-])c1cccc(Nc2nc(N)c(C(=O)c3c(Cl)cccc3Cl)s2)c1 (stereo not drawn) [DD(145)]
53 | 47.6 | 15 |  |  |  | COC(=O)C[S+]([O-])c1cccc(Nc2nc(N)c(C(=O)c3c(Cl)cccc3Cl)s2)c1 (stereo not drawn) [DD(146)]
38 | 39.6 | 19 |  |  |  | CN1CCCC(C[S+]([O-])c2cccc(Nc3nc(N)c(C(=O)c4c(Cl)cccc4Cl)s3)c2)C1 (stereo not drawn) [DD(147)]
53 | 65.5 | 35 |  |  |  | NC(=O)CC[S+]([O-])c1cccc(Nc2nc(N)c(C(=O)c3c(Cl)cccc3Cl)s2)c1 (stereo not drawn) [DD(148)]
55 | 57.7 | 33 |  |  |  | Nc1nc(Nc2cccc([S+]([O-])CCO)c2)sc1C(=O)c1c(Cl)cccc1Cl (stereo not drawn) [DD(149)]
21 | 10.4 | 5.6 |  |  |  | CC(C)CCC[S+]([O-])c1cccc(Nc2nc(N)c(C(=O)c3c(Cl)cccc3Cl)s2)c1 (stereo not drawn) [DD(150)]
9.2 | 34.3 | 16 |  |  |  | CC(C)CCOC(=O)C[S+]([O-])c1cccc(Nc2nc(N)c(C(=O)c3c(Cl)cccc3Cl)s2)c1 (stereo not drawn) [DD(151)]
28 | 57.3 | 21 |  |  |  | CN(C)CC[S+]([O-])c1cccc(Nc2nc(N)c(C(=O)c3c(Cl)cccc3Cl)s2)c1 (stereo not drawn) [DD(152)]
44 | 51.8 | 15 |  |  |  | CCOCC[S+]([O-])c1cccc(Nc2nc(N)c(C(=O)c3c(Cl)cccc3Cl)s2)c1 (stereo not drawn) [DD(153)]
60 | 73.5 | 31 |  |  |  | Nc1nc(Nc2cccc([S+]([O-])CC(O)CO)c2)sc1C(=O)c1c(Cl)cccc1Cl (stereo not drawn) [DD(154)]
35 | 59.6 | 25 |  |  |  | Nc1nc(Nc2cccc([S+]([O-])Cc3ccncc3)c2)sc1C(=O)c1c(Cl)cccc1Cl (stereo not drawn) [DD(155)]
